Results on one compound are retold here after US20080227128A1, “Resonance Energy Transfer System and Method” (Mount Sinai School of Medicine of New York University, priority 2004, published 2008).

In this test the test system is PKA-Ala construct. The test can be described thus: BRET assay, PKA-Ala construct. The test is classed as cell-based, Human. (BRET reads energy transfer from a luciferase to a nearby fluorophore.)

For `Nc1ncnc2c1ncn2[C@@H]1O[C@@H]2COP(O)(=S)O[C@H]2[C@H]1O` (single isomer, unassigned) [Sp-cAMPs, Adenosine-3′,5′-cyclic monophosphorothioate, Sp-isomer], the “effect on BRET ratio, serine mutated to alanine” value is “has no effect”.
